# ChEMBL document CHEMBL4270621, “Discovery of long-chain salicylketoxime derivatives as monoacylglycerol lipase (MAGL) inhibitors” (Eur J Med Chem, 2018)
# Active and inactive are the calls of the source. The calls are words filed in the database; no cut-off is given here.
# Experiments:
# Monoglyceride lipase [1] = target: T1, Monoglyceride lipase (Homo sapiens, UniProt Q99685); assay: Inhibition of recombinant human C-terminal His-tagged MAGL expressed in Escherichia coli using 4-NPA as substrate measured after 30 mins
# T1 sequence (Q99685 whole entry): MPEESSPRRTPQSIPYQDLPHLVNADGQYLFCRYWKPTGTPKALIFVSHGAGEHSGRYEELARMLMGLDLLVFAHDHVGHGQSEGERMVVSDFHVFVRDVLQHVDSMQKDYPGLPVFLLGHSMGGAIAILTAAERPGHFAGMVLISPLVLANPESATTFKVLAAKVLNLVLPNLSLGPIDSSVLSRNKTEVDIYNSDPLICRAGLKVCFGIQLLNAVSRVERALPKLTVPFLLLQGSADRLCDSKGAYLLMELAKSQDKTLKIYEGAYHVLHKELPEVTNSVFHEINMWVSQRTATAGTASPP
# MDA-MB-231 = assay: Antiproliferative activity against human MDA-MB-231 cells measured after 96 hrs; format: functional, cell-based; details: MDA-MB-231, 96 h
# HCT-116 = assay: Antiproliferative activity against human HCT116 cells measured after 96 hrs; format: functional, cell-based; details: HCT-116, 96 h
# Caov-3 cell line = assay: Antiproliferative activity against human Caov3 cells measured after 96 hrs; format: functional, cell-based; details: Caov-3, 96 h
# OVCAR-3 = assay: Antiproliferative activity against human OVCAR3 cells measured after 96 hrs; format: functional, cell-based; details: OVCAR-3, 96 h
# SK-OV-3 = assay: Antiproliferative activity against human SKOV3 cells measured after 96 hrs; format: functional, cell-based; details: SK-OV-3, 96 h
# Monoglyceride lipase [2] = target: T1, Monoglyceride lipase; assay: Inhibition of recombinant human C-terminal His-tagged MAGL expressed in Escherichia coli using 4-NPA as substrate pretreated with substrate 15 mins followed by enzyme addition measured after 30 mins
# Monoglyceride lipase [3] = target: T1, Monoglyceride lipase; assay: Inhibition of recombinant human C-terminal His-tagged MAGL expressed in Escherichia coli using 4-NPA as substrate pretreated with substrate 15 mins in presence of DTT followed by enzyme addition measured after 30 mins
# [4] = target: T2, Monoglyceride lipase (Homo sapiens) (UniProt Q99685); assay: Reversible inhibition of recombinant human C-terminal His-tagged MAGL expressed in Escherichia coli at 20 uM using 4-NPA as substrate pretreated for 60 mins followed by 40 times compound dilution for 15 mins and subsequent substrate addition measured after 30 mins
# T2 sequence (whole entry): T1 sequence (Q99685 whole entry)
# [5] = target: T2, Monoglyceride lipase (Homo sapiens); assay: Reversible inhibition of recombinant human C-terminal His-tagged MAGL expressed in Escherichia coli using 4-NPA as substrate pretreated up to 60 mins followed by substrate addition and measured after 30 mins
# [6] = target: T3, Fatty-acid amide hydrolase 1 (Homo sapiens, UniProt O00519); assay: Inhibition of FAAH in human U937 cells using [ethanolamine-1-3H]AEA as substrate pretreated for 30 mins followed by substrate addition and measured after 15 mins by liquid scintillation counting method; format: cell-based
# T3 sequence (O00519 whole entry): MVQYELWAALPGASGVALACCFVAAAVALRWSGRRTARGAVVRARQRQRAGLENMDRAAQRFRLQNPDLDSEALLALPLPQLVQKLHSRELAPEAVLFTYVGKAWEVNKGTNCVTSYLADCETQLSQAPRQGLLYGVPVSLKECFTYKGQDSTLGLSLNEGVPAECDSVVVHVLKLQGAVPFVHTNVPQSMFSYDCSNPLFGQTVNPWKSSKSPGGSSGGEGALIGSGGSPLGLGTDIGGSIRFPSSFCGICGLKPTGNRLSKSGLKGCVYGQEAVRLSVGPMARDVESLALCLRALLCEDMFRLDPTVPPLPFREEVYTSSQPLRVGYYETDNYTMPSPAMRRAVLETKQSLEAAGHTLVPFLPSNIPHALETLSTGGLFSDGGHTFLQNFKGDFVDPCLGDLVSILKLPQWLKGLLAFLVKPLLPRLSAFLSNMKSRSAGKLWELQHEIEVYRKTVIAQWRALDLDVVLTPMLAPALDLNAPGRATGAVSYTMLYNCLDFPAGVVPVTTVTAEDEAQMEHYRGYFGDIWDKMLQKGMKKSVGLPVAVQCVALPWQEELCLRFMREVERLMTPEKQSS
# Cannabinoid receptor 1 [7] = target: T4, Cannabinoid receptor 1 (Homo sapiens, UniProt P21554); assay: Displacement of [3H]CP55940 from recombinant human CB1 expressed crude membranes after 90 mins by liquid scintillation counting method
# T4 sequence (P21554 whole entry): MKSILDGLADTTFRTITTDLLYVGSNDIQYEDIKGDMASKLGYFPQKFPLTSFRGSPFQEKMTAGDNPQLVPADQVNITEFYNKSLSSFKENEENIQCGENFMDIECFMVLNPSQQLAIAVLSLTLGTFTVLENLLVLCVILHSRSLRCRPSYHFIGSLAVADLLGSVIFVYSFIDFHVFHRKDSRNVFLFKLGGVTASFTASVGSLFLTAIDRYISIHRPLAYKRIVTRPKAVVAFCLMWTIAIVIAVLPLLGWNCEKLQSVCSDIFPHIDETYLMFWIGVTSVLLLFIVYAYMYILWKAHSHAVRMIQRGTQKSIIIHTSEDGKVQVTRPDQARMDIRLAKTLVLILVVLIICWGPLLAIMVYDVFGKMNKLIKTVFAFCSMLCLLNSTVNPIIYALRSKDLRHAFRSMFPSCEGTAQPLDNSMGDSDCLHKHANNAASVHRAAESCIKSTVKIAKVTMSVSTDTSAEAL
# Cannabinoid receptor 1 [8] = target: T4, Cannabinoid receptor 1; assay: Displacement of [3H]CP55940 from recombinant human CB1 expressed in crude membranes at 10 uM after 90 mins by liquid scintillation counting method relative to control; format: cell membranes
# [9] = target: T5, Estrogen receptor (Homo sapiens) (UniProt P03372); assay: Displacement of [3H]-estradiol from full length human untagged ERalpha expressed in Sf insect cells after 18 to 24 hrs by radiometric method relative to estradiol
# T5 sequence (whole entry): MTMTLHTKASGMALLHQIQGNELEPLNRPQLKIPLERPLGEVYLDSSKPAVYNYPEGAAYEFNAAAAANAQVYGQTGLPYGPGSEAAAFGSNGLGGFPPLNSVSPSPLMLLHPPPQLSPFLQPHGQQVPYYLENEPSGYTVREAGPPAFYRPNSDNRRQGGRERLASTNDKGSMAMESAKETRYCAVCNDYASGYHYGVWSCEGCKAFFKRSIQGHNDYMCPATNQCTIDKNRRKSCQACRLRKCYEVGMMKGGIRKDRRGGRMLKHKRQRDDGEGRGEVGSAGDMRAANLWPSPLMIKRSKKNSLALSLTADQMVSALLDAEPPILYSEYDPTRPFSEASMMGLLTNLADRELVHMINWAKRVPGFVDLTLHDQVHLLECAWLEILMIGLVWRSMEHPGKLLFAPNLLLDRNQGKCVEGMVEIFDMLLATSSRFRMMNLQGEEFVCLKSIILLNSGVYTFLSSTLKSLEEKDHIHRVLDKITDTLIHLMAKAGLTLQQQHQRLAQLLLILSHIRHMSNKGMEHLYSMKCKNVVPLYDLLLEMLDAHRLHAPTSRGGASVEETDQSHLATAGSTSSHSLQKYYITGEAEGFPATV
# [10] = target: Estrogen receptor beta (Homo sapiens) (UniProt Q92731); assay: Displacement of [3H]-estradiol from full length human ERbeta expressed in insect cells after 18 to 24 hrs by radiometric method relative to estradiol
# Estrogen receptor beta (Homo sapiens), sequence (Q92731 whole entry): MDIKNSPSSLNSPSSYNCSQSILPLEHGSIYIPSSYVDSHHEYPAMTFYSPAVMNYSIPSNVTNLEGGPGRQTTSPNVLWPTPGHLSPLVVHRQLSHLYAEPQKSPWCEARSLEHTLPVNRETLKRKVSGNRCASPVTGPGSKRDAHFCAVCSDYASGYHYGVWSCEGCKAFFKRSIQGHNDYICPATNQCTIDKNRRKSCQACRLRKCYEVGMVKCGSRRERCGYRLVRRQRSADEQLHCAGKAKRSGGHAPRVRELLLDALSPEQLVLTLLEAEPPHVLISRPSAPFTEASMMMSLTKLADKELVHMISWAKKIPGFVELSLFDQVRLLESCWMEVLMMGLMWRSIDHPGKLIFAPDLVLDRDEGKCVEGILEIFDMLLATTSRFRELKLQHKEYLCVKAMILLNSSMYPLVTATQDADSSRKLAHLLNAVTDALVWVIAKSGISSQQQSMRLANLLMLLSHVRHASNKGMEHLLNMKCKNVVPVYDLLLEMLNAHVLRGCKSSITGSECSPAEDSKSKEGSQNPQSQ
SMILES,IC50 (Monoglyceride lipase [1]) [µM],IC50 (MDA-MB-231) [µM],IC50 (HCT-116) [µM],IC50 (OVCAR-3) [µM],IC50 (SK-OV-3) [µM],IC50 (Caov-3 cell line) [µM],other results
CCCC/C(=N\O)c1cc(-c2ccc(OC)cc2)ccc1O,119,–,–,–,–,–,–
COc1nn(-c2ccc(NC(=O)OCc3ccccc3)c(C)c2)c(=O)o1,–,42,89,50,34,92,–
CCCCCCCCCCCCC/C(=N\O)c1cc(-c2ccc(OC)c(F)c2)ccc1O,> 200,–,–,–,–,–,–
C/C(=N\O)c1cc(-c2ccc(O)c(F)c2)ccc1O,34,–,–,–,–,–,–
CCCCCCCCCCCCCCC/C(=N\O)c1cc(-c2ccc(OC)c(F)c2)ccc1O,> 200,–,–,–,–,–,–

# More lines, main results first:
IC50 (Monoglyceride lipase [1]) [µM],IC50 (MDA-MB-231) [µM],IC50 (HCT-116) [µM],IC50 (OVCAR-3) [µM],IC50 (SK-OV-3) [µM],SMILES,IC50 (Caov-3 cell line) [µM],other results
0.68,73,11,28,26,CCCCCCCCCCCCC/C(=N\O)c1cc(-c2ccc(O)c(F)c2)ccc1O,14,IC50 (Monoglyceride lipase [2]): 0.68 µM; IC50 (Monoglyceride lipase [3]): 0.7 µM; inhibition [4]: Active; inhibition [5]: Active; IC50 [6]: 8.7 µM; IC50 (Cannabinoid receptor 1 [7]): 4.1 µM; inhibition (Cannabinoid receptor 1 [8]): 5%
11,–,–,–,–,CC/C(=N\O)c1cc(-c2ccc(O)c(F)c2)ccc1O,–,RBA [9]: 2.1%; RBA [10]: 37%
0.71,45,7.6,40,20,CCCCCCCCCCC/C(=N\O)c1cc(-c2ccc(O)c(F)c2)ccc1O,11,IC50 [6]: 4.1 µM; IC50 (Cannabinoid receptor 1 [7]): 2.6 µM; inhibition (Cannabinoid receptor 1 [8]): 5%
